Experiments:
T7 RNA polymerase = T7 RNA polymerase (Escherichia phage T7, UniProt P00573); settings: T7 RNA polymerase transcription, pTri β actin template, cap analog 1.6 mM, GTP 0.4 mM, 37° C. 2 h, 20% dPAGE gel
Protocol: The gel shift assay was performed by using a pTri β actin template and the IVT reaction used linearized AmbLuc poly(A) DNA template and a [sequence] kit (Life Technologies Corporation). Radiation in the gel bands of interest was quantified by a phosphorimager (GE Healthcare).
To analyze capping efficiency during transcription a Gel Shift Assay was used. The Gel shift assay was performed using the MAXISCRIPT kit (Life Technologies Corporation) by following the manufacturer's protocol. A typical 20 μL T7 RNA polymerase transcription reaction contained the following reagents at the final concentrations indicated: linearized pTri β actin vector template, 0.5 μg; ATP, 2 mM; GTP, 0.4 mM; compound standard cap analog and alkynyl-derivatized cap analog 7, 1.6 mM each in separate reactions; 10× reaction buffer, 4 μl; T7 RNA polymerase, 50 units/μL; (α-^32P) ATP, 800 (Ci/mmol); and DEPC water. The control reaction was a normal in vitro transcription reaction, in which no cap analog was added. […] Radiation in the gel bands of interest was quantified by a phosphoroimager (GE Healthcare).
Due to the omission of CTP and UTP, only the 5′ end was transcribed by T7 RNA polymerase, producing a transcript of six nucleotides in length. The resulting transcription products were analyzed by 20% denaturing polyacrylamide/8 M urea gel.

HeLa cells = assay: Translation efficiency: luciferase activity after transfection of capped luciferase mRNA poly(A); assay type: cell-based; settings: luciferase mRNA poly(A) transfected into HeLa cells, 16 h, versus m^7GpppG-capped mRNA
Protocol: Alkynyl-derivatized capped mRNAs were produced in vitro for use in translation assays. […] In order to hydrolyze the remaining plasmid DNA, 1 μL of TURBO DNase was added to the reaction mixture and further incubated at 37° C. for 15 min. Purification of transcription reactions was done by using the MEGAclear™ kit (Life Technologies Corp) as per manufacturer's protocol. The in vitro transcription results in a mixture of 5′analog-capped and uncapped mRNAs.
To determine the translational efficiency, the luciferase mRNA poly(A) product generated from the transcription reaction using a standard cap and the luciferase mRNA poly(A) product generated as described above using the alkyne-derivatized cap 7 were transfected separately into HeLa cells.
The HeLa cells (60,000/well in 24 well-plates) were seeded at least 12 h before transfection in growth medium without antibiotics. Capped RNA was prepared by mixing 600 ng of RNA, 2.5 μL of TFX-20™ (Promega), and 300 μL of serum-free DMEM in polystyrene tubes and incubated for 15 min at room temperature. […] The plate was mixed carefully to disrupt the cells and 10 μL of cell lysates from each transfection reactions were mixed with 100 μL of luciferase substrate (Promega) and measured immediately on a POLARstar OPTIMA Luminometer (BMG Labtech) in 96-well plates. […]

Sequence of T7 RNA polymerase (P00573 whole entry): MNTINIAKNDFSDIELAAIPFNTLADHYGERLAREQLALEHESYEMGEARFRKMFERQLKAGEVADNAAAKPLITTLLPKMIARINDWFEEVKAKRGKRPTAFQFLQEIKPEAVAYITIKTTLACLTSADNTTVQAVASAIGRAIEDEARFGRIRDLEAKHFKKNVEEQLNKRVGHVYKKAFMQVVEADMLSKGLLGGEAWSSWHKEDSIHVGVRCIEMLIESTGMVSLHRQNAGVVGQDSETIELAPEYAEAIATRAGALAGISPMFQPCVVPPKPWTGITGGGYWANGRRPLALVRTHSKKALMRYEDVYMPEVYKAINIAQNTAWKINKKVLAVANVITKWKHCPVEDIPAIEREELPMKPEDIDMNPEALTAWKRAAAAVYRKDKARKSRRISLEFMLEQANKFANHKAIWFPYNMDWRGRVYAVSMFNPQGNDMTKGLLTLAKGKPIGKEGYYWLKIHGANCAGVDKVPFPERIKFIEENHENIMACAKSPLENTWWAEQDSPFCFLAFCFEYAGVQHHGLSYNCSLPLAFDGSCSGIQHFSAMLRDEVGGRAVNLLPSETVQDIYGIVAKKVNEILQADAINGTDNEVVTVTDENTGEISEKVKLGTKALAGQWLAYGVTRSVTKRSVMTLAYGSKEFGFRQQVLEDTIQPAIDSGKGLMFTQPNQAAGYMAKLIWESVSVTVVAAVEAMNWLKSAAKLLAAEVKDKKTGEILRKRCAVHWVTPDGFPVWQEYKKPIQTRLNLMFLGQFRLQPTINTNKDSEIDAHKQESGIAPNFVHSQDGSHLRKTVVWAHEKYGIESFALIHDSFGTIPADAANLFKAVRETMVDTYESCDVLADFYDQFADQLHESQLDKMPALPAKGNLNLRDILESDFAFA

Compound	capping efficiency (T7 RNA polymerase)	translational efficiency (luciferase signal) relative to mRNA capped with the standard cap analog (HeLa cells)	translational efficiency (luciferase signal) relative to mRNA capped with the standard cap analog (HeLa cells; listed as 3′-O-propargyl substituted cap analog)
C#CCO[C@H]1[C@@H](O)[C@H](n2c[n+](C)c3c(=O)[nH]c(N)nc32)O[C@@H]1COP(=O)(O)OP(=O)(O)OP(=O)(O)OC[C@H]1O[C@@H](n2cnc3c(=O)[nH]c(N)nc32)[C@H](O)[C@@H]1O [compound 7, m^7,3′-O-propargylG[5′]ppp[5′]G]	60%	up to 3 fold	3.1 fold
Cn1c[n+]([C@@H]2O[C@H](COP(=O)(O)OP(=O)(O)OP(=O)(O)OC[C@H]3O[C@@H](n4cnc5c(=O)[nH]c(N)nc54)[C@H](O)[C@@H]3O)[C@@H](O)[C@H]2O)c2nc(N)[nH]c(=O)c21 [standard cap, m^7G(5′)ppp(5′)G, reference compound]	73%	–	–
